The text below walks through data of article PMC12523642, “Unveiling the Bioactive Potential of Allium colchicifolium Boiss Bulb Flavonoids: Anti-cancer Activities, and Computational Exploration of Anti-angiogenic Mechanisms” (Iranian Journal of Pharmaceutical Research : IJPR, 2025).

The test system of data set [1] is VEGF receptor-2 and angiogenesis cellular signaling pathways. Conditions: 25 µM; cited from earlier work.
The subject of data set [2] is HeLa (human cervix carcinoma). Description: MTT cytotoxicity assay on HeLa. Type of data set: cell-based. Conditions: 24 hours, mean ± SD, read-out: Cytotoxic activity IC50, HeLa. As to the method:
(§1) Cancer cell lines, including PC3 NCBI-C427 (human prostate adenocarcinoma), HeLa NCBI-C115 (human cervix carcinoma), MCF7 NCBI-C135 (human breast adenocarcinoma), and a normal cell line, human umbilical vein endothelial cell (HUVEC) NCBI-C554, were purchased from the Pasteur Institute of Tehran, Iran. Cells were cultured and maintained in Dulbecco’s modified Eagle’s medium (DMEM) supplemented with 10% fetal bovine serum (FBS) and 2% (v/v) streptomycin-penicillin in a humidified incubator with a 5% CO2 atmosphere at 37°C. Passages 2 to 3 of the cells were utilized for the cytotoxicity assay ([18]).
(§2) The MTT assay was used to determine the cytotoxic activities of the MeOH extract, isolated compounds (1 - 3), and doxorubicin (as a positive control) on human cancer cell lines. For the MTT assay, concentrations (1, 5, 10, 25, 50, 100 µg) of the samples were prepared in DMEM as diluent and incubated with cells (10^5 cells/mL) for 24 hours in 96-well plates. Then, the MTT powder was added to the wells and incubated for 4 hours at 37°C. Absorbance was measured at 570 nm using a microplate reader. The experiment was performed in triplicate, and cell viability percentages were calculated by the following equation: […]. The negative control was untreated cells. The cytotoxicity IC50 value for the extracts was defined as the concentration that reduces 50% cell viability ([19]).
On the technique in general: Formazan colour is commonly taken as a measure of viable cells.

Data set [3] deals with PC3 (human prostate adenocarcinoma). Description: MTT cytotoxicity assay on PC3. Type of data set: cell-based. Conditions: 24 h, mean ± SD, read-out: Cytotoxic activity IC50, PC3. As to the method: as §1, §2
Data set [4] is described as follows: MTT cytotoxicity assay on HUVEC (normal cell line). The class given is cell-based. Conditions: human, HUVEC (umbilical vein endothelial cells), mean ± SD, read-out: Cytotoxic activity IC50, HUVEC. As to the method: as §1, §2
Data set [5] relates to chicken chorioallantoic membrane (CAM). Description: Chick chorioallantoic membrane (CAM) anti-angiogenesis assay. Type of data set: in vivo. The note with it: Gallus gallus, read-out: Anti-angiogenesis IC50 (50% inhibition of angiogenesis). As for the experimental part: The anti-angiogenesis activities of the MeOH extract and isolated compounds ([1]-[3]) were evaluated using the chicken chorioallantoic membrane (CAM) model. Briefly, pathogen-free fertilized chicken eggs were purchased from Baharan Parent Stock Company, Kermanshah, Iran, and incubated at 37°C with 75% humidity for 7 days. Then, square windows (1 cm^2) were opened in the outer shell of the eggs, and different concentrations of samples were loaded. After 48 hours, the zones around the discs were photographed with a digital camera and macroscopically assayed for neovascular zones of CAM in each treatment group. The effects on local vessel density within a 10 cm^2 area surrounding the windows were measured in each treatment group using AngioSoft software (V, 2019) ([12], [13]). The study was done in triplicate for each experimental group (8 eggs). The anti-angiogenesis IC50 value for the extracts was reported as the concentration that reduces 50% angiogenesis compared to the blank disk.
The results of the anti-angiogenesis activities of isolated flavonoids (1 - 3) and the MeOH extract of A. colchicifolium bulbs on the CAM model of angiogenesis are shown in Figure 2A and B. The IC50 of each compound was considered as the concentration that caused 50% inhibition of angiogenesis in a 100 mm^2 area surrounding each sample disc compared to the negative control disc (distilled water).

Data set [6] concerns MCF7 (human breast adenocarcinoma). Description: MTT cytotoxicity assay on MCF-7. Type of data set: cell-based. Conditions: MCF7, 24 h, mean ± SD, read-out: Cytotoxic activity IC50, MCF-7. As for the experimental part: as §1, §2
For the next data set, the system named is mice VEGF serum levels. Also noted: method as in PMID 23867787. The note with it: 20 mg/kg; by reducing mice VEGF serum levels; cited from earlier work.
The next data set has as its system CAM model. Conditions: 10 nM; by blocking matrix metalloproteinase-2 gene expression; cited from earlier work.
[7] abbreviates: CAM model, 48 hours, compared to negative control disc.

In brackets after ≈: the same amount, converted by molar mass. Like-named read-outs stand apart in the source and are kept apart here.

On to `COc1ccc(-c2oc3c(C)c(OC)cc(OC)c3c(=O)c2OC)cc1OC` [8-methylquercetin-3,5,7,3',4'-pentamethyl ether, reference compound], for which the Anti-angiogenesis activities result in data set [1] is recorded as “demonstrated anti-angiogenesis activities”.

What is called IC50 is the concentration needed to halve the response being measured. As to `C[C@@H]1O[C@@H](OC[C@H]2O[C@@H](Oc3c(-c4ccc(O)c(O)c4)oc4cc(O)cc(O)c4c3=O)[C@H](O)[C@@H](O)[C@@H]2O)[C@H](O)[C@H](O)[C@H]1O` [Compound 1, quercetin 3-O-rutinoside], the IC50 in data set [2] turned out to be 6.95 ± 0.32 µg/mL (≈ 11.4 µM); in data set [3] it was 2.96 ± 0.16 µg/mL (≈ 4.85 µM); in data set [5] (setting [7]), 7.12 ± 0.1 µg/mL (≈ 11.7 µM); in data set [6], 3.16 ± 0.3 µg/mL (≈ 5.18 µM). Moreover, the IC50 at 24 h in data set [4] was 9.35 ± 0.8 µg/mL (≈ 15.3 µM). For the same compound, the Inhibition of angiogenesis entry with mice VEGF serum levels was “inhibited angiogenesis”.

As for `COc1cc(-c2oc3cc(O)cc(O)c3c(=O)c2O[C@@H]2O[C@H](CO)[C@@H](O)[C@H](O)[C@H]2O)ccc1O` [Compound 2, isorhamnetin 3-O-glucoside], the IC50 was 8.43 ± 0.32 µg/mL (≈ 17.6 µM) in data set [2], 1.72 ± 0.02 µg/mL (≈ 3.6 µM) in data set [3], 6 ± 0.21 µg/mL (≈ 12.5 µM) in data set [5] (setting [7]) and 2.58 ± 0.21 µg/mL (≈ 5.39 µM) in data set [6]. In addition, the IC50 at 24 h in data set [4] is 9.96 ± 0.37 µg/mL (≈ 20.8 µM).

In the case of `O=c1c(O)c(-c2ccc(O)c(O)c2)oc2cc(O)cc(O)c12` [Compound 3, quercetin], the IC50 in data set [2] is 6.17 ± 0.13 µg/mL (≈ 20.4 µM); in data set [3], at most 3 µg/mL; in data set [5] (48 h) it was 5.3 ± 0.3 µg/mL (≈ 17.5 µM); in data set [6] it was at most 3 µg/mL. Further, the “Anti-angiogenesis on the CAM model” value in the data set with CAM model was “exhibited anti-angiogenesis”. The IC50 at 24 h in data set [4] amounted to 7.23 ± 0.29 µg/mL (≈ 23.9 µM). In data set [1], the Anti-angiogenesis activities result was “demonstrated anti-angiogenesis activities”.

Take `COc1cccc2c1C(=O)c1c(O)c3c(c(O)c1C2=O)C[C@@](O)(C(=O)CO)C[C@@H]3O[C@H]1C[C@H](N)[C@H](O)[C@H](C)O1` [Doxorubicin, doxorubicin, reference compound]: the IC50 in data set [2] was 0.066 ± 0.007 µg/mL (≈ 0.121 µM); in data set [3], 0.051 ± 0.004 µg/mL (≈ 0.0938 µM); in data set [6] it was 0.034 ± 0.01 µg/mL (≈ 0.0626 µM). Besides, the IC50 at 24 h in data set [4] worked out at 0.045 ± 0.006 µg/mL (≈ 0.0828 µM).
